Data reported in patent US20080206374A1 (priority 2003, published 2008).
Counter-ions that a name gives are not always drawn. Marks after values point to notes of the source that are not given here.

How the values were obtained:
[1] = test system: experimental acute myocardial ischemia of dogs; assay: experimental acute myocardial ischemia and myocardial infarction of anesthetized dogs (coronary artery ligature); assay type: in vivo
Description: The experimental medicaments were prepared with physiological saline to the same volume (50 ml), and injected through femoral vein at a speed of 5 ml/min with the computer minim syringe pump (Type AJ-5803, Shanghai).
The animals were anaesthetized with pentobarbital sodium (30 mg/kg, i.v), and connected with an electric respirator after tracheal intubation. The chest was opened in the position of the 4th left rib to expose the heart. The pericardium was cut out to make a pericardial bed. The laevorotatory branch of coronary artery was separated and a probe of an electromagnetic flowmeter (Type MF-1100) was placed in to measure the blood flow of coronary artery. The middle section of anterior descending branch of coronary artery was separated and a thread was put through for ligature to make a model of experimental acute myocardium myocardial ischemia. A multipoint fixed epicardium electrode was sewed up and connected with a multirunning physiological recorder (Type RM-6100, Japan Photoelectricity) to display and record the electrocardiogram of epicardium^<1>. The coronary artery was ligated for 15 minutes and recorded as a control value before medicaments administration. The experimental medicaments or physiological saline was injected through the femoral vein. At […] 15, 30, 45, 60, 90, 120, and 180 minutes after medicament administration, 30 measuring points of the epicardium electrocardiogram were recorded. The rising S-T section that is more than 2 mv was taken as a judgment standard to calculate the degree of myocardial ischemia (total mv number of the rising S-T section Σ-ST) and the range of myocardial ischemia (total point number of the rising S-T section N-ST). After intubation through the […] into the coronary vein sinus, the blood oxygen content of coronary vein was measured by a blood oxygen instrument (Type AVL912, Swiss) while the blood samples were taken before ischemia, ischemia 15 min (before administration), at 15, 30, 60, 120, and 180 minutes after medicament administration. Then the animal was intubated into the carotid to measure the blood oxygen content of artery. It was calculated together with the blood flow of coronary artery to measure the myocardial oxygen consumption:
Myocardial oxygen consumption=(blood oxygen content of artery−blood oxygen content of coronary vein)×blood flow of coronary artery/100.
The blood samples were taken at the above-mentioned time points, and then serum creatine phosphate kinase (CK) and lactic dehydrogenase (LDH) were measured with a full-automatic biochemical analyzer (Type RA-1000, USA). And ET, TXB2 and 6-Keto-PGF1 were measured with the Radioimmuno-method and with a full-automatic γ counter (Type FT-630G, Beijing).
When recording was finished at 180 minutes after medicament administration, the heart was taken out immediately, washed with physiological saline and weighed as a whole. Under the ligature line of the heart, the ventricle was cut evenly into 5 pieces parallel to the coronary sulcus. Then the pieces were placed in the N-BT solution and stained at the room temperature for 15 minutes. The infarcted area (N-BT non-stained area) and the non-infarcted area (N-BT stained area) on the lateral sides of each piece of myocardium were measured with a Multimedia Color Pathological Image Analyzing System (Type MPIAS-500, Beijing) The area of each piece of myocardium, the total area of ventricle and the area of the infarcted section were calculated. The percentage of the infarcted area over the ventricle and that over total heart were calculated.
The experimental result was processed statistically and its significance was tested with t-Test.

[2] = test system: normally anaesthetized dogs; assay: cardiac hemodynamics and cardiac oxygen consumption of dogs; assay type: in vivo
Description: The experimental medicaments were prepared to the same volume (50 ml) with physiological saline, and injected through femoral vein at a speed of 5 ml/min by the computer minim syringe pump (Type AJ-5803, Shanghai).
The animals were anaesthetized intravenously with pentobarbital sodium (30 mg/kg, i.v), and connected with an electric respirator after tracheal intubation. The chests were opened in the position of the 4th left rib to expose the heart. The pericardium was cut to make a pericardial bed. The laevorotatory branch of coronary artery and the root of aorta were separated and a probe of an electromagnetic flowmeter (Type MF-1100) was placed in to measure the blood flow of coronary artery and cardiac output. The tip of left ventricle was intubated and connected with a pressure energy transducer (MPU-0.5A). The internal pressure of left ventricle was measured with a carrier amplifier (AG-601G), and the maximal ascending rate (dp/dtmax) of the internal pressure of left ventricle was measured with a differentiator (ED-601G). The animals were intubated through the external jugular vein into the coronary vein sinus and also intubated through the carotid. The blood oxygen contents of coronary vein sinus and artery were measured using a blood oxygen instrument (Type AVL912, Swiss) to calculate the myocardial oxygen consumption. Then the femoral artery was intubated to measure the blood pressure of artery. And then with the Standard Limb Lead II of electrocardiogram, the heart rate and the related parameters of electrocardiogram were calculated. With the formula, other indexes of hemodynamics were calculated: cardiac stroke output, oxygen consumption index, cardiac index, resistance of coronary artery, total peripheral resistance and oxygen utility, etc. All the above-mentioned indexes were recorded by a multirunning physiological recorder (Type RM-6000, Japan Photoelectricity) synchronously.
After the operation and the observed indexes being stable, the values before medicament were recorded, and the experimental medicaments were then administered. The values were recorded at 5 minutes of the middle of the process of administration, immediately after, and 1, 3, 5, 10, 15, 30, and 60 minutes after administered medicaments. All the measured indexes and derived parameters were processed statistically. The self-comparisons of the actual measurement values within different time periods after and before administered medicaments were made. Using the t-Test, the changed rate percentages were compared to show the significance between the groups.

[3] = test system: myocardial ischemia reperfusion injury of rats; assay: myocardial infarction caused by ischemia reperfusion; assay type: in vivo; conditions: 1.0 mg/kg
Description: The medicaments were diluted to desired concentration with physiological saline. The volume of administered medicament was 4 ml/kg. And the medicaments were given through the left femoral vein.
The animals were anaesthetized by pentobarbital sodium (45 mg/kg) through abdominal cavity and fixed in backstroke position. […] The tracheas were cut open, the trachea cannulas were inserted, and tracheas were connected with a respirometer (Type SC-3, Shanghai) for artificial respiration (32/min, with a respiration ratio of 1:3). The 3rd-5th ribs were cut off after opening the chest, and the pericardiums were opened to expose the heart. A suture (suture No. 0) was put through the root of left anterior descending branch of coronary artery for ligature. After the suture being put through stably for 10 minutes, a plastic concave pipe was placed parallel with the blood vessel, which was then ligated (eliminating the ones without changes of ST and T-wave). The experimental medicaments were administered. After 40 minutes, the ligature suture was cut off along the groove to trigger the reperfusion of the anterior descending branch. The chest was then seamed and independent respiration was recovered.
The bloode samples were taken from the ventral aorta to measure the serum SOD and MDA contents after 2 hours of the ligature. The heart was sliced into 5 pieces under heart ligature and was stained by N-BT. Using a Multimedia Pathological Color Image Analyzing System (Type MPIAS-500, Beijing), the areas of the normal myocardiums and the myocardial infraction were calculated. The degree of myocardial infarction was observed. And the experimental results were statistically analyzed (t-Test).

[4] = test system: acute lung injury caused by the lipopolysaccharide; assay: LPS acute lung injury (ALI) model; assay type: in vivo, Wistar rats
Description: And each of the modeling group, the LPS+DEX Group and LPS+SQ Group was again divided into 3 time phasing groups, that is, a one-hour group, a two-hour group, and a four-hour group. There are 10 groups in total, 6 […] per group in this experiment.
The 18 rats of the LPS+DEX Group were injected abdominally with 50 mg/kg Dexamethasone 2 hours before modeling. The 18 rats of the LPS+NS Group were injected with physiological saline 2 hours before modeling. Except for the normal Control group, all the three above-mentioned groups were injected with LPS (4 mg/kg) in the caudal vein.
After all the animals being anaesthetized with chloral hydrate through abdominal injection at the determined time phasing point, 2 ml blood was sampled from the carotid, and centrifuged at 800 gr/min for 8 minutes. The supernatant was extracted and placed at −20° C. in a refrigerator for future usage. The chest was opened and the lower lobes of the right lung were sampled They were placed in the EP tubes treated with DEPC solution and immediately put at −70° C. in a refrigerator for the total RNA extraction. The upper lobes of the right lung were sampled and dipped in 10% formaldehyde solution to fix. The left lungs were taken for the ratio of wet/dry weight measurement.
4. At the corresponding timing point, the animal lung tissues were taken and observed with human eyes and under the microscope using HE Staining Method. The ratio of tissues wetdry weight was also measured.

[5] = influence upon the lethal effect of MTX; assay type: in vivo, mice; conditions: MTX 22 mg/kg i.p.; composition 0.2 ml i.p. daily for eight days
Description: 2) The mice were divided into two groups and inoculated the tumor cells according to the method above. […] On the 4th day of the administration, the mice were inoculated tumor cell and intraperitoneally injected 22 mg/kg aqueous solution of MTX after 6 hours of inoculation. Within 10 days after MTX injection, the death rate of animals was observed and the survival rates of the two groups of animals were compared.

[6] = Dose/kg 0.5 mg, femoral vein, 180 minutes, N-BT staining
[7] = Herbesser Injection, femoral vein
[8] = serum after 2 hours of the ligature
[9] = LPS 4 mg/kg, DEX 50 mg/kg 2 hours before, SQ 2 ml daily 1 week before

CCCCC[C@H](O)/C=C/[C@@H]1[C@@H](CC(=O)CCCCC(=O)O)[C@@H](O)C[C@H]1O [Composition 6-Keto-PGF1, 6-keto-prostaglandin F1α]
myocardial oxygen consumption (in words) ([1]; 15 minutes after given): obviously reduced | cardiac stroke output (in words) ([2]; dog, in vivo): markedly increased the cardiac stroke output | resistance of outer periphery (in words) ([2]; dog, in vivo): reduced the resistance of outer periphery

COc1ccc([C@@H]2Sc3ccccc3N(CCN(C)C)C(=O)[C@@H]2OC(C)=O)cc1 [Herbesser, Diltiazem Hydrochloride]
Infarcted Area [1, 6]: 281.30 ± 159.9*** mm^2 | Infarcted Area/heart [1, 6]: 2.27 ± 0.73 | Infarcted Area/ventricle [1, 6]: 7.44 ± 2.61 | increasing activity of serum CK and LDH caused by myocardial ischemia and infarction (in words) ([1]; Herbesser, composition 2.4 g crude drug/kg, P<0.05 vs physiological saline): significantly inhibited | blood flow of coronary artery (in words) ([1]; after ligature of the coronary artery): evident effect of increasing blood flow of coronary artery | ET activity in plasma caused by myocardial ischemia and infarction (in words) ([1]; dog, in vivo): obvious inhibiting effect on the ET activity | blood oxygen content of vein sinus (in words) ([1]; no statistical meaning): effect trend of increasing blood oxygen content of vein sinus | blood flow and resistance of coronary artery (in words) ([2]; Herbesser Injection): markedly increased the blood flow and the resistance of coronary artery | arterial blood pressure (in words) [2, 7]: obvious effect of reducing blood pressure | heart rate (in words) [2, 7]: slowing down heart rate | Infarcted Area/heart ([3]; left femoral vein): 16.6 ± 2.6 | Infarcted Area/ventricle % ([3]; left femoral vein): 21.6 ± 4.3 % | The area of myocardial infraction ([3]; left femoral vein): 61.72 ± 9.68** mm^2 | Weight of Infarcted Area ([3]; left femoral vein): 0.154 ± 0.027 g | MDA content of blood serum [3, 8]: 2.35 ± 0.07 µmol/L | SOD content of blood serum [3, 8]: 660.9 ± 159.7 ng/mL

C[C@@H]1C[C@H]2[C@@H]3CCC4=CC(=O)C=C[C@]4(C)[C@@]3(F)[C@@H](O)C[C@]2(C)[C@@]1(O)C(=O)CO [LPS + DEX, Dexamethasone]
Pathological Classification of lung injury: cases Light, 1-hour ([4]; LPS 4 mg/kg caudal vein, DEX 50 mg/kg abdominally 2 hours before, SQ 2 ml abdominally daily 1 week before): 6 | Lung W/D Ratio, 1 h [4, 9]: 4.82 ± 0.23*Δ | Lung W/D Ratio, 2 h [4, 9]: 4.59 ± 0.19*Δ# | Lung W/D Ratio, 4 h [4, 9]: 4.57 ± 0.10*Δ# | Pathological Classification of lung injury: cases Light, 2-hour [4, 9]: 4 | Pathological Classification of lung injury: cases Light, 4-hour [4, 9]: 6 | Pathological Classification of lung injury: cases Middle, 1-hour [4, 9]: 0 | Pathological Classification of lung injury: cases Middle, 2-hour [4, 9]: 2 | Pathological Classification of lung injury: cases Middle, 4-hour [4, 9]: 0 | Pathological Classification of lung injury: cases Severe, 1-hour [4, 9]: 0 | Pathological Classification of lung injury: cases Severe, 2-hour [4, 9]: 0 | Pathological Classification of lung injury: cases Severe, 4-hour [4, 9]: 0 | symptoms (tachypnea, lips cyanosis, mental wilting) after LPS (in words) ([4]; compared with LPS+NS Group): relatively mild | general observation of lung tissues (in words) ([4]; same time phasing points, in comparison to Group LPS+NS): mitigated to different extent

CN(Cc1cnc2nc(N)nc(N)c2n1)c1ccc(C(=O)N[C@@H](CCC(=O)O)C(=O)O)cc1 [MTX, Methotrexate]
Number of Dead Animal after administered MTX, 4th day [5]: 1 | Number of Dead Animal after administered MTX, 5th day [5]: 7 | Number of Dead Animal after administered MTX, 6th day [5]: 3 | Number of Dead Animal after administered MTX, 7th day [5]: 6 | Survival Number after 10 days [5]: 4 | Survival Rate % after 10 days [5]: 19.04%
